Test results published in ChEMBL document CHEMBL1124905, “Synthesis of new (+-)-3,5-dihydroxypentyl nucleoside analogues from 1-amino-5-(benzyloxy)pentan-3-ol and their antiviral evaluation” (J Med Chem, 1990).
Activity calls are given as the source filed them. The calls are words filed in the database; no cut-off is given here.

Key:
[1] = test system: Human immunodeficiency virus 1; experiment: Antiviral activity against HIV-1 was determined; No inhibition; type: functional, organism-based
Human betaherpesvirus 5 = experiment: Antiviral activity against HCMV was determined; No inhibition; type: functional, organism-based
[2] = Compound tested for toxic activity at 100 ug/mL; Not toxic; type: ADME
Human alphaherpesvirus 1 [3] = experiment: Compound tested for inhibition of theCPE (Cytopathic effect) of HSV-1 at 12.5 ug/mL; type: functional, herpes simplex virus
Human alphaherpesvirus 1 [4] = experiment: Concentration required for suppression of the CPE (Cytopathic effect) of HSV-1; type: functional, organism-based; conditions: herpes simplex virus
MRC5 = experiment: Concentration required for cytotoxicity of MRC5 cell line was determined; type: functional, cell-based; conditions: Homo sapiens

Row | SMILES | inhibition [1] | inhibition (Human betaherpesvirus 5) | other results
1 | Nc1ccn(CCC(O)CCO)c(=O)n1 (configuration not stated) | inactive | inactive | 
2 | Nc1nc2c(ncn2COCCO)c(=O)[nH]1 | inactive | inactive | 
3 | Nc1nc(O)c2ncn(CC[C@H](O)CCO)c2n1 | inactive | inactive | Toxicity [2]: Non-toxic; inhibition at 12.5 µg/mL (Human alphaherpesvirus 1 [3]): 50%; Concentration (Human alphaherpesvirus 1 [4]): 50 µg/mL
4 | Nc1nc2c(ncn2CCCCO)c(=O)[nH]1 | inactive | inactive | 
5 | Nc1nc2c(ncn2COC(CO)CO)c(=O)[nH]1 |  |  | NA [1]: inactive; NA (Human betaherpesvirus 5): inactive
6 | Nc1ncnc2c1ncn2CCOCP(=O)(O)O | inactive | inactive | 
7 | Nc1nc2c(ncn2CC[C@@H](O)CO)c(=O)[nH]1 | inactive | inactive | 
8 | Nc1ncnc2c1ncn2C=C=CCO | inactive | inactive | 
9 | Nc1nc(O)c2ncn(CCC(CO)CO)c2n1 | inactive | inactive | 
10 | Nc1nc(O)c2ncn(CC(CO)CCO)c2n1 (configuration not stated) | inactive | inactive | 
11 | Nc1ncnc2c1ncn2C[C@@H](CO)OCP(=O)(O)O | inactive | inactive | 
12 | Nc1ncnc2c1ncn2C[C@H](O)CO | inactive | inactive | 
13 | Cc1cn(CCC(O)CCO)c(=O)[nH]c1=O (configuration not stated) | inactive | inactive | 
14 | Nc1ncnc2c1ncn2CCC(O)CCO (configuration not stated) | inactive | inactive | Concentration (MRC5): 25 µg/mL
